Test results taken from the supplement of paper PMC10307832.

Tests used:
Assay in all cases: relative viability (nuclei count vs DMSO), 5 days (fraction); higher = more cells survive
[1] = test system: A-427
How it was run: (§1)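 For relative viability, nuclei counts in treated wells were divided by those in vehicle wells. Lung cancer cell lines had been pin-tool dosed in 1536-well plates the day after seeding and cultured for 5 days, then fixed and stained in one step (final 0.05% Triton X-100, 1% formaldehyde, 1 ug/ml Hoechst) and imaged at 4×. Doses were one drug alone or a fixed anchor-drug dose plus five library-drug doses (not always all listed) in √10 steps, and values are duplicate-plate medians.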

[2] = test system: HCC-15
How it was run: as §1

[3] = test system: HCC-78
How it was run: as §1

[4] = test system: HOP-62
How it was run: as §1

[5] = test system: LC-2-ad
How it was run: as §1

[6] = test system: LXF-289
How it was run: as §1

[7] = test system: NCI-H1734
How it was run: as §1

[8] = test system: NCI-H1755
How it was run: as §1

[9] = test system: NCI-H1792
How it was run: as §1

[10] = test system: NCI-H1915
How it was run: as §1

[11] = test system: NCI-H1975
How it was run: as §1

[12] = test system: NCI-H2126
How it was run: as §1

[13] = test system: NCI-H2228
How it was run: as §1

[14] = test system: NCI-H2347
How it was run: as §1

[15] = test system: NCI-H358
How it was run: as §1

[16] = test system: NCI-H647
How it was run: as §1

[17] = test system: PC-3 [JPC-3]
How it was run: as §1

[18] = test system: RERF-LC-KJ
How it was run: as §1

[19] = test system: SK-LU-1
How it was run: as §1

[20] = test system: SW 1573
How it was run: as §1

CC(=O)O[C@@]12CO[C@@H]1C[C@H](O)[C@@]1(C)C(=O)[C@H](O)C3=C(C)[C@@H](OC(=O)[C@H](O)[C@@H](NC(=O)OC(C)(C)C)c4ccccc4)C[C@@](O)([C@@H](OC(=O)c4ccccc4)[C@H]21)C3(C)C [Docetaxel] + C[C@@H](Oc1cc(-c2cnn(C3CCNCC3)c2)cnc1N)c1c(Cl)ccc(F)c1Cl [Crizotinib] (partner 1 µM)
relative viability ([1]; first compound 0.0002 µM): 0.998 | relative viability ([1]; first compound 0.000632 µM): 0.859 | relative viability ([1]; first compound 0.002 µM): 0.506 | relative viability ([1]; first compound 0.006325 µM): 0.221 | relative viability ([1]; first compound 0.02 µM): 0.167 | relative viability ([2]; first compound 0.0002 µM): 0.818 | relative viability ([2]; first compound 0.000632 µM): 0.452 | relative viability ([2]; first compound 0.002 µM): 0.172 | relative viability ([2]; first compound 0.006325 µM): 0.207 | relative viability ([2]; first compound 0.02 µM): 0.14 | relative viability ([3]; first compound 0.0002 µM): 0.33 | relative viability ([3]; first compound 0.000632 µM): 0.32 | relative viability ([3]; first compound 0.002 µM): 0.245 | relative viability ([3]; first compound 0.006325 µM): 0.308 | relative viability ([3]; first compound 0.02 µM): 0.223 | relative viability ([4]; first compound 0.0002 µM): 0.903 | relative viability ([4]; first compound 0.000632 µM): 0.386 | relative viability ([4]; first compound 0.02 µM): 0.129 | relative viability ([5]; first compound 0.0002 µM): 0.388 | relative viability ([5]; first compound 0.000632 µM): 0.342 | relative viability ([5]; first compound 0.002 µM): 0.318 | relative viability ([5]; first compound 0.006325 µM): 0.389 | relative viability ([5]; first compound 0.02 µM): 0.222 | relative viability ([6]; first compound 0.0002 µM): 0.819 | relative viability ([6]; first compound 0.000632 µM): 0.483 | relative viability ([6]; first compound 0.002 µM): 0.452 | relative viability ([6]; first compound 0.006325 µM): 0.119 | relative viability ([6]; first compound 0.02 µM): 0.139 | relative viability ([7]; first compound 0.0002 µM): 0.498 | relative viability ([7]; first compound 0.000632 µM): 0.576 | relative viability ([7]; first compound 0.002 µM): 0.362 | relative viability ([7]; first compound 0.006325 µM): 0.298 | relative viability ([7]; first compound 0.02 µM): 0.246 | relative viability ([8]; first compound 0.0002 µM): 0.833 | relative viability ([8]; first compound 0.000632 µM): 0.535 | relative viability ([8]; first compound 0.002 µM): 0.503 | relative viability ([8]; first compound 0.006325 µM): 0.382 | relative viability ([8]; first compound 0.02 µM): 0.353 | relative viability ([9]; first compound 0.0002 µM): 0.929 | relative viability ([9]; first compound 0.000632 µM): 0.905 | relative viability ([9]; first compound 0.002 µM): 0.646 | relative viability ([9]; first compound 0.02 µM): 0.115 | relative viability ([10]; first compound 0.0002 µM): 0.892 | relative viability ([10]; first compound 0.000632 µM): 0.803 | relative viability ([10]; first compound 0.002 µM): 0.325 | relative viability ([10]; first compound 0.006325 µM): 0.181 | relative viability ([10]; first compound 0.02 µM): 0.141 | relative viability ([11]; first compound 0.0002 µM): 0.861 | relative viability ([11]; first compound 0.000632 µM): 0.483 | relative viability ([11]; first compound 0.002 µM): 0.23 | relative viability ([11]; first compound 0.006325 µM): 0.192 | relative viability ([11]; first compound 0.02 µM): 0.142 | relative viability ([12]; first compound 0.0002 µM): 1.01 | relative viability ([12]; first compound 0.000632 µM): 1.03 | relative viability ([12]; first compound 0.002 µM): 0.632 | relative viability ([12]; first compound 0.006325 µM): 0.382 | relative viability ([12]; first compound 0.02 µM): 0.322 | relative viability ([13]; first compound 0.0002 µM): 0.358 | relative viability ([13]; first compound 0.000632 µM): 0.292 | relative viability ([13]; first compound 0.002 µM): 0.22 | relative viability ([13]; first compound 0.006325 µM): 0.278 | relative viability ([13]; first compound 0.02 µM): 0.159 | relative viability ([14]; first compound 0.0002 µM): 0.736 | relative viability ([14]; first compound 0.000632 µM): 0.702 | relative viability ([14]; first compound 0.002 µM): 0.695 | relative viability ([14]; first compound 0.006325 µM): 0.589 | relative viability ([14]; first compound 0.02 µM): 0.422 | relative viability ([15]; first compound 0.0002 µM): 0.383 | relative viability ([15]; first compound 0.000632 µM): 0.342 | relative viability ([15]; first compound 0.002 µM): 0.16 | relative viability ([15]; first compound 0.02 µM): 0.116 | relative viability ([16]; first compound 0.0002 µM): 0.769 | relative viability ([16]; first compound 0.000632 µM): 0.319 | relative viability ([16]; first compound 0.002 µM): 0.172 | relative viability ([16]; first compound 0.006325 µM): 0.117 | relative viability ([16]; first compound 0.02 µM): 0.1 | relative viability ([17]; first compound 0.0002 µM): 0.966 | relative viability ([17]; first compound 0.000632 µM): 0.918 | relative viability ([17]; first compound 0.002 µM): 0.635 | relative viability ([17]; first compound 0.006325 µM): 0.223 | relative viability ([17]; first compound 0.02 µM): 0.172 | relative viability ([18]; first compound 0.0002 µM): 0.868 | relative viability ([18]; first compound 0.000632 µM): 0.7 | relative viability ([18]; first compound 0.002 µM): 0.509 | relative viability ([18]; first compound 0.006325 µM): 0.196 | relative viability ([18]; first compound 0.02 µM): 0.166 | relative viability ([19]; first compound 0.0002 µM): 0.692 | relative viability ([19]; first compound 0.000632 µM): 0.567 | relative viability ([19]; first compound 0.002 µM): 0.379 | relative viability ([19]; first compound 0.006325 µM): 0.249 | relative viability ([19]; first compound 0.02 µM): 0.272 | relative viability ([20]; first compound 0.0002 µM): 0.737 | relative viability ([20]; first compound 0.000632 µM): 0.307 | relative viability ([20]; first compound 0.006325 µM): 0.218 | relative viability ([20]; first compound 0.02 µM): 0.203
